The text below walks through data of publication PMC6434189, “Peperomin E and its orally bioavailable analog induce oxidative stress-mediated apoptosis of acute myeloid leukemia progenitor cells by targeting thioredoxin reductase” (Redox Biology, 2019).

One test has as its target T1, NADPH-reduced TrxR1 (Homo sapiens, UniProt Q16881).
T1 construct: purchased Abcam ab204206
T1 sequence (Q16881 1-499 isoform Q16881-5): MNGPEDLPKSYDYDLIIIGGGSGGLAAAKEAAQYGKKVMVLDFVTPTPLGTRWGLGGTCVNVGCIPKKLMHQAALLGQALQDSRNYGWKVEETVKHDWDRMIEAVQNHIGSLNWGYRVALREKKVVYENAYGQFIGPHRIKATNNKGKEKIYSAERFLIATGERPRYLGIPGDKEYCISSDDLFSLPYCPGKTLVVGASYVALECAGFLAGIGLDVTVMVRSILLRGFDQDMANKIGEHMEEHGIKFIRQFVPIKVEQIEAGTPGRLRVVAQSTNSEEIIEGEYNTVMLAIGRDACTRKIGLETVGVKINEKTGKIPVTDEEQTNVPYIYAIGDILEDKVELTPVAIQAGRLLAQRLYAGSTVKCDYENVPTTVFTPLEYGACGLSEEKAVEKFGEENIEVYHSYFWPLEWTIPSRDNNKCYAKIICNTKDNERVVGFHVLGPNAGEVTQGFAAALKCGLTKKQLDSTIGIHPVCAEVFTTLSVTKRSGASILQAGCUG
The test is described as follows: Bio-layer interferometry (BLI) binding assay, TrxR1. As to the method: (§1) The binding kinetics of PepE or PepA to purified recombinant proteins were determined using BLI on an Octet RED 96 system (ForteBio, Shanghai, China) following the manufacturer's protocol. All interaction analyses were performed at 25 °C in PBS with 0.2% DMSO. Purified recombinant proteins (0.9 μM, the TrxR1 full length and TrxR1 protein fragment were pre-reduced by 400 μM of NADPH before test) were pre-labeled with biotin using […] (Abcam) following the manufacturer's instruction. Loading of the Dip and Read Super Streptavidin (SSA) Biosensors (ForteBio) were conducted by exposing biotinylated proteins to biosensor tips for 2 h. The 96-well microplates used in the Octet were filled with 200 μL sample or buffer per well and agitated at 1000 rpm. The loaded biosensors were washed in buffer for 600 s and transferred to wells containing PepE at concentrations of 0.625, 1.25, 2.5, 5, and 10 μM or PepA at concentrations of 1.25, 2.5, 5, 10 and 20 μM, respectively, in the buffer. […] Reference measurements were conducted using the buffer instead of PepE (or PepA). A parallel set of SA unloaded biosensors was prepared to act as a control. The sample-sensorgrams were corrected by subtracting the double reference curve. Kinetic parameters (Kon and Kdis) and affinity (KD) were determined from a global fit to a 1:1 binding model of the data between proteins and PepE using Octet software (ForteBio).
Background: Biolayer interferometry detects binding as a change in optical thickness at a sensor tip.

A further test has as its target T2, TrxR1 nSec498 (Homo sapiens, UniProt Q16881).
T2 construct: protein fragment, without selenocysteine residue; purchased Abcam ab168011
T2 sequence (Q16881 11-497 isoform Q16881-5): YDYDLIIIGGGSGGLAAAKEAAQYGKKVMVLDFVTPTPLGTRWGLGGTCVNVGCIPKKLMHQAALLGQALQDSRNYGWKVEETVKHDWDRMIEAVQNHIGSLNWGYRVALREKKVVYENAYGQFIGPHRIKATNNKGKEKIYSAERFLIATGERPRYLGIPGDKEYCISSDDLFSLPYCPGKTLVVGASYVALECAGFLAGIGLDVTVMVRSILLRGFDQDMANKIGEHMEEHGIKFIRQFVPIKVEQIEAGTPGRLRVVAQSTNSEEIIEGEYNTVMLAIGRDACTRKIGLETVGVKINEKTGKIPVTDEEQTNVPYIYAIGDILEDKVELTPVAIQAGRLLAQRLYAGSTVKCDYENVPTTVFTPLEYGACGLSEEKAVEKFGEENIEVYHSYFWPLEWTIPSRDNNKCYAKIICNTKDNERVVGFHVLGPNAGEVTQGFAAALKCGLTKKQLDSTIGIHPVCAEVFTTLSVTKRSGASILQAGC
The experiment in a line: BLI binding assay, TrxR1 without Sec498. As to conditions: NADPH reduced TrxR1 nSec498 0.9 μM. How it is done:
as §1, with “The sample-sensorgrams were corrected by subtracting the double reference curve.” left out

In test [1] the target is T3, TrxR1 without Sec498 residue (TrxR1 nSec) (Homo sapiens, UniProt Q16881).
T3 construct: protein fragment, without selenocysteine residue; purchased Abcam ab168011
T3 sequence (Q16881 1-497 isoform Q16881-5): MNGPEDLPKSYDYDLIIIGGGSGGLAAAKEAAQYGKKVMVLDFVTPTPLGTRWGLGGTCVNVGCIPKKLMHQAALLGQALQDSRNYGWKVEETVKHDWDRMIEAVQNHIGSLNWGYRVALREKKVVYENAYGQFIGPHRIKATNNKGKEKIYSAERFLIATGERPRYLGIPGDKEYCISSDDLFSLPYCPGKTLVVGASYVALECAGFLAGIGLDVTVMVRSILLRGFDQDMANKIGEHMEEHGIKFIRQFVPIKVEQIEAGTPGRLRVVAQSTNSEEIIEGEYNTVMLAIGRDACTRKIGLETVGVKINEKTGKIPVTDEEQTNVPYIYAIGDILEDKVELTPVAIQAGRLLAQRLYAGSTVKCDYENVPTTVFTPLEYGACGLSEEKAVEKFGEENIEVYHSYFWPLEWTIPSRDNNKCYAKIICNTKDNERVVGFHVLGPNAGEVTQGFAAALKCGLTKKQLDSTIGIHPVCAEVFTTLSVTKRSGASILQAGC
The experiment in a line: In vitro TrxR1 activity assay (DTNB reduction), Sec-missing enzyme. Type of test: biochemical. Conditions: Sec-missing enzyme 0.1 μM. How it is done: The in vitro TrxR1 activity assay was performed using the DTNB reduction assay. Briefly, 0.1 μM recombinant human TrxR1 or TrxR1 without Sec498 residue (TrxR1 nSec) protein was reduced with 100 μM NADPH in assay buffer (50 mM Tris-HCl, 1 mM EDTA, pH = 7.5) for 30 min at room temperature. The reduced proteins was then treated with the indicated concentrations of PepE (final concentrations of 0.25, 0.5, 1, 2, 4, 6 μM), respectively, and incubated for 1 h at 37 °C. A mixture of assay buffer solution (50 mM Tris-HCl, 1 mM EDTA, pH = 7.5) containing DTNB and NADPH was added then added, making the final concentrations of DTNB and NADPH 2 mM and 200 μM, respectively. The absorbance was monitored at 412 nm using the SpectraMax i3x microplate reader (Molecular Devices). The linear increase of absorbance during the initial 3 min was recorded for calculating the relative enzyme activity. The same amount of DMSO was added to the control experiments and the activity is expressed as the percentage of the control.

pIC50, pKd: −log10 of the molar value.

`C=C1C(=O)OC[C@H]1C(c1cc(OC)c2c(c1)OCO2)c1cc(OC)c2c(c1)OCO2` [PepE, Peperomin E] showed a kon on NADPH-reduced TrxR1 of 12400 M⁻¹ s⁻¹. Besides, the pKd on NADPH-reduced TrxR1 (NADPH-reduced TrxR1 0.9 μM, 25 °C) was 6.47; at NADPH-reduced TrxR1 (Table S3), 6.47; at TrxR1 nSec498, 4.92. Besides, the koff on NADPH-reduced TrxR1 (read-out: Kdis) came to 0.00423 s⁻¹. In test [1], this compound gave a pIC50 of under 5.10.

By kon is commonly meant a measure of how fast the partners come together. Read a low kon as slower complex formation. In general, pKd refers to the Kd on a negative log10 scale, so that one unit is a factor of ten. Lower therefore signals a high Kd. A word on the pIC50: it is the negative decadic logarithm of the IC50, by convention in mol/L. Low readings indicate a large IC50, high ones a small IC50.
